This passage reports IC50 results from patent publication US9447095B2, “Pyrimidine derivatives as phosphodiesterase 10 inhibitors (PDE-10)” (PALOBIOFARMA S.L., priority 2013, dated 2016).

SMILES strings stand for the structures. pIC50: −log10 of the molar value.

The target of the test is Phosphodiesterase 10A (PDE10A) (Homo sapiens (Human), UniProt Q9Y233). Put plainly: Phosphodiesterase 10A (PDE10A) activity inhibition test ([3H]cAMP scintillation proximity assay). Particulars: dose-response, 1:10 dilutions from 100 μM to 1 nM; [3H]cAMP SPA, 20 minutes at 30° C.; read-out: IC50 PDE10. It is filed as biochemical. The protocol: The “analysis of the activity of the enzyme Phosphodiesterase [^3H] cAMP SPA” (Perkin Elmer #7090 TRKQ) kit was used for the study of Phosphodiesterase 10. The kit contains: • Yttrium scintillation proximity assay (SPA) in beads: yttrium silicate in microspheres resuspended pellet in MiliQ water containing 18 mM zinc sulfate. • 10×PDE assay buffer: 500 mM Tris/HCl; 83 mM MgCl2; 17 mM EGTA; pH 7.5. • Tracer [^3H] cAMP: substrate for enzymatic reaction.
Phosphodiesterase 10A (PDE10A), sequence (Q9Y233 whole entry, species assumed): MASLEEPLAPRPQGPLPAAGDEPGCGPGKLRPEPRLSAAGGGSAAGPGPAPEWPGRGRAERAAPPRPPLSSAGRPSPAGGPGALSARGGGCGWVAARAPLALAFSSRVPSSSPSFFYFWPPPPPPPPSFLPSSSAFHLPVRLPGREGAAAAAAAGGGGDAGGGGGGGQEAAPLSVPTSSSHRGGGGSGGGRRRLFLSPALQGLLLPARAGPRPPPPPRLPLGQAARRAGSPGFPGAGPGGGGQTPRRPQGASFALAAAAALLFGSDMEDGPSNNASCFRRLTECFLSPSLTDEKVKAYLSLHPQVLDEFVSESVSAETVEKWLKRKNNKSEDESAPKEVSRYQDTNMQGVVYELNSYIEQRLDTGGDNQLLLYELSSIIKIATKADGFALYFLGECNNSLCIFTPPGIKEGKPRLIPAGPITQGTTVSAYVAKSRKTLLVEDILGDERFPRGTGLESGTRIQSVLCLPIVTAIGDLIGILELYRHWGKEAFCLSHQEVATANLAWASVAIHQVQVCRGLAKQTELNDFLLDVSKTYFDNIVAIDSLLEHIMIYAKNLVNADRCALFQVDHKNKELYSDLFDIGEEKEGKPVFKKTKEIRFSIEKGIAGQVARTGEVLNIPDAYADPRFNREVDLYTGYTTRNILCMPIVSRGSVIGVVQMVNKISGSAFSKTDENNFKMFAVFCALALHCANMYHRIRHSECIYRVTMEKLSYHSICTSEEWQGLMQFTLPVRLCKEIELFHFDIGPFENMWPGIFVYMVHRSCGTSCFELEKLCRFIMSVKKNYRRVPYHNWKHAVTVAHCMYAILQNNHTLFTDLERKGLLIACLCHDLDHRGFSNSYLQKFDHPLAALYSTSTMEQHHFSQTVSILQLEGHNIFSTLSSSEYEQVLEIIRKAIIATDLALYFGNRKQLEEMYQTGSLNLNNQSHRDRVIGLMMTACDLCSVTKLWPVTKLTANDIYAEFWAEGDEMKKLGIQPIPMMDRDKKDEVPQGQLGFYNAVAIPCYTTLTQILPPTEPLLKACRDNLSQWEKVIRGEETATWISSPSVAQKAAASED
The test is based on the preferential binding of linear nucleotides to the SPA beads in the presence of zinc sulfate, with respect to the binding of cyclic nucleotides, which is almost imperceptible.
The binding of the radioactively labeled product to the beads brings the isotope to a proximity enough to allow the radioactive tritium radiation to excite the flashing part in the bead. Any independent radiolabel is not sufficiently close to the flashing part to allow the transfer of energy, so that no signal is generated. In addition, as the cyclic substrate is not effectively linked with the bead, the generated background signal is very low.
The binding of the linear nucleotides with the bead is based on a complex chelation mechanism. Zinc sulfate in the microsphere solution improves the binding between the bead and […].
Phosphodiesterase 10A (PDE10A) Activity Inhibition Test
The test is performed in 96-well Flexiplates (Perkin Elmer #1450-401) with duplicates for each sample. Positive and negative controls are also required in each analyzed plate to evaluate the activity of the enzyme.
The inhibition values for each of the compounds are measured in duplicate at a concentration of 10 μM and the plate is incubated for 20 minutes at 30° C. and then 50 μL of the kit beads are then added “Phosphodiesterase SPA beads” (Perkin-Elmer #RPNQ0150).
The plate is stirred for 1 hour at room temperature. Then beads are allowed to stand for one hour before reading the activity in a beta scintillation counter.
To build a dose-response curve, in order to calculate the potency of inhibition (expressed as IC50) for PDE10A, a series of 1:10 dilutions in test in 1× buffer from 100 μM to 1 nM for each compound were carried out.
A general note: In a scintillation proximity assay essentially only radioactivity close to the scintillant gives light.
For `Nc1nc(-n2ncc3ccccc32)nc(NCC2CC2)c1Br` [Example 1, 5-bromo-N^4-(cyclopropylmethyl)-2-(1H-indazol-1-yl)pyrimidine-4,6-diamine], the pIC50 – broadly, −log10 of the IC50, conventionally taken in molar units – was 7.28.

For the molecule `CCNc1nc(-n2cc(-c3ccncn3)cn2)nc(NCc2nc3ccccc3[nH]2)c1Br` [Example 77, N^4-[(1H-benzo[d]imidazol-2-yl)methyl]-5-bromo-N^6-ethyl-2-[4-(pyrimidin-4-yl)-1H-pyrazol-1-yl]pyrimidine-4,6-diamine], the pIC50 is 7.53.

In the case of `CCNc1nc(-n2ncc3ccccc32)nc(N)c1Br` [Example 2, 5-bromo-N^4-ethyl-2-(1H-indazol-1-yl)pyrimidine-4,6-diamine], the pIC50 was 7.66.

In the case of `C#CCNc1nc(-n2ncc3ccncc32)nc(N)c1Br` [Example 33, 5-bromo-N^4-(prop-2-ynyl)-2-(1H-pyrazolo[3,4-c]pyridin-1-yl)pyrimidine-4,6-diamine], the pIC50 is 8.49.

Regarding `C#CCNc1nc(-n2cncn2)nc(N)c1Br` [Example 42, 5-bromo-N^4-(prop-2-ynyl)-2-(1H-1,2,4-triazol-1-yl)pyrimidine-4,6-diamine], the pIC50 is 8.24.

Regarding `COCCNc1nc(-n2ncc3ccccc32)nc(N)c1Br` [Example 11, 5-bromo-2-(1H-indazol-1-yl)-N^4-(2-methoxyethyl)pyrimidine-4,6-diamine], the pIC50 is 7.59.

With `Nc1nc(-n2ncc3ccccc32)nc(NC2CCOCC2)c1Br` [Example 7, 5-bromo-N^4-(tetrahydro-2H-pyran-4-yl)-2-(1H-indazol-1-yl)pyrimidine-4,6-diamine], the pIC50 is 7.66.

As for `Cc1nc(CNc2nc(-n3ncc4ccccc43)nc(N)c2Br)cs1` [Example 6, 5-bromo-2-(1H-indazol-1-yl)-N^4-[(2-methylthiazol-4-yl)methyl]pyrimidine-4,6-diamine], the pIC50 is 7.73.

For `Cn1cc(CNc2nc(-n3ncc4ccccc43)nc(N)c2Br)cn1` [Example 8, 5-bromo-2-(1H-indazol-1-yl)-N^4-[(1-methyl-1H-pyrazol-4-yl)methyl]pyrimidine-4,6-diamine], the pIC50 is 7.13.

As for `Nc1nc(-n2cc(-c3ccccn3)cn2)nc(-n2cccn2)c1Br` [Example 55, 5-bromo-6-(1H-pyrazol-1-yl)-2-[4-(pyridin-2-yl)-1H-pyrazol-1-yl]pyrimidin-4-amine], the negative-log IC50 (pIC50) was 7.04.

For the molecule `CCNc1nc(-n2ncc3ccccc32)nc(N)c1Cl` [Example 64, 5-chloro-N^4-ethyl-2-(1H-indazol-1-yl)pyrimidine-4,6-diamine], the negative logarithm of the IC50 (pIC50) is 7.91.

`Cc1ncsc1CNc1nc(-n2cc(-c3cnccn3)cn2)nc(N)c1Br` [Example 29, 5-bromo-N^4-[(4-methylthiazol-5-yl)methyl]-2-[4-(pyrazin-2-yl)-1H-pyrazol-1-yl]pyrimidine-4,6-diamine]: the pIC50 was 7.78.

For `CCNc1nc(-n2cc(-c3ccncn3)cn2)nc(N)c1Br` [Example 61, 5-bromo-N^4-ethyl-2-[4-(pyrimidin-4-yl)-1H-pyrazol-1-yl]pyrimidine-4,6-diamine], the pIC50 was 7.43.

Consider `Cc1ncsc1CNc1nc(-n2ncc3ccncc32)nc(N)c1Br` [Example 34, 5-bromo-N^4-[(4-methylthiazol-5-yl)methyl]-2-(1H-pyrazolo[3,4-c]pyridin-1-yl)pyrimidine-4,6-diamine], for which the negative-log IC50 (pIC50) is 9.40.

As to `C#CCNc1nc(-n2cc(-c3ccccn3)cn2)nc(N)c1Br` [Example 17, 5-bromo-N^4-(prop-2-ynyl)-2-[4-(pyridin-2-yl)-1H-pyrazol-1-yl]pyrimidine-4,6-diamine], the negative logarithm of the IC50 (pIC50) was 7.74.

With `C#CCNc1nc(-n2ncc3ccccc32)nc(N)c1Br` [Example 3, 5-bromo-2-(1H-indazol-1-yl)-N^4-(prop-2-ynyl)pyrimidine-4,6-diamine], the negative-log IC50 (pIC50) is 7.39.

Take `Nc1nc(-n2cc(-c3ccccn3)cn2)nc(NCc2cncs2)c1Br` [Example 20, 5-bromo-2-[4-(pyridin-2-yl)-1H-pyrazol-1-yl]-N^4-[(thiazol-5-yl)methyl]pyrimidine-4,6-diamine]: the negative logarithm of the IC50 (pIC50) was 8.15.

With `Cc1ncsc1CNc1nc(-n2ncc3ncccc32)nc(N)c1Br` [Example 41, 5-bromo-N^4-[(4-methylthiazol-5-yl)methyl]-2-(1H-pyrazolo[4,3-b]pyridin-1-yl)pyrimidine-4,6-diamine], the pIC50 is 9.22.

Consider `Cc1ncsc1CNc1nc(-n2ncc3cnccc32)nc(N)c1Br` [Example 39, 5-bromo-N^4-[(4-methylthiazol-5-yl)methyl]-2-(1H-pyrazolo[4,3-c]pyridin-1-yl)pyrimidine-4,6-diamine], for which the negative-log IC50 (pIC50) is 9.52.

As for `Nc1nc(-n2cncn2)nc(NCc2cncs2)c1Br` [Example 45, 5-bromo-N^4-[(thiazol-5-yl)methyl]-2-(1H-1,2,4-triazol-1-yl)pyrimidine-4,6-diamine], the negative-log IC50 (pIC50) was 8.89.

Turning to `Nc1nc(-n2ncc3ccncc32)nc(NCc2cncs2)c1Br` [Example 36, 5-bromo-2-(1H-pyrazolo[3,4-c]pyridin-1-yl)-N^4-[(thiazol-5-yl)methyl]pyrimidine-4,6-diamine], the pIC50 was 10.22.

For the molecule `C#CCNc1nc(-n2ncc3ccccc32)nc(NCC)c1Br` [Example 66, 5-bromo-N^4-ethyl-2-(1H-indazol-1-yl)-N^6-(prop-2-ynyl)pyrimidine-4,6-diamine], the pIC50 was 6.92.

With `Nc1nc(-n2cc(C(=O)O)cn2)nc(NCC2CC2)c1Br` [Example 51, 1-[4-amino-5-bromo-6-(cyclopropylmethylamino)pyrimidin-2-yl]-1H-pyrazole-4-carboxylic acid], the pIC50 is 7.52.

Consider `Nc1nc(-n2ncc3ccccc32)nc(NCc2cncs2)c1Br` [Example 9, 5-bromo-2-(1H-indazol-1-yl)-N^4-[(thiazol-5-yl)methyl]pyrimidine-4,6-diamine], for which the pIC50 is 8.80.

Regarding `Cc1ncsc1CNc1nc(-n2ncc3ccccc32)nc(N)c1Br` [Example 10, 5-bromo-2-(1H-indazol-1-yl)-N^4-[(4-methylthiazol-5-yl)methyl]pyrimidine-4,6-diamine], the pIC50 was 8.54.

For `CCNc1nc(-n2cc(C(=O)N3CCOCC3)cn2)nc(N)c1Br` [Example 53, {1-[4-amino-5-bromo-6-(ethylamino)pyrimidin-2-yl]-1H-pyrazole-4-yl}(morpholino)methanone], the pIC50 is 8.09.

In the case of `Nc1nc(-n2cncn2)nc(NCC2CC2)c1Br` [Example 46, 5-bromo-N^4-(cyclopropylmethyl)-2-(1H-1,2,4-triazol-1-yl)pyrimidine-4,6-diamine], the pIC50 was 8.47.

For the molecule `C#CCNc1nc(-n2cc(-c3cnccn3)cn2)nc(N)c1Br` [Example 30, 5-bromo-N^4-(prop-2-ynyl)-2-[4-(pyrazin-2-yl)-1H-pyrazol-1-yl]pyrimidine-4,6-diamine], the negative-log IC50 (pIC50) is 8.35.

For `Nc1nc(-n2cc(-c3ccc4ccccc4n3)cn2)nc(NC2CCOCC2)c1Br` [Example 23, 5-bromo-N^4-(tetrahydro-2H-pyran-4-yl)-2-[4-(quinolin-2-yl)-1H-pyrazol-1-yl]pyrimidine-4,6-diamine], the pIC50 is 8.02.

Turning to `Nc1nc(-n2ncc3ccncc32)nc(NCC2CC2)c1Br` [Example 35, 5-bromo-N^4-(cyclopropylmethyl)-2-(1H-pyrazolo[3,4-c]pyridin-1-yl)pyrimidine-4,6-diamine], the pIC50 was 8.74.
